# From US8318495B1, “Hematopoietic progenitor cell gene transduction” (Case Western Reserve University, priority 1998, dated 2012)
# Where “and” joins values, the source holds several entries; their conditions need not be identical. Equal entries are not always repeated. Where two headings read alike, the source gives them in different places.
# Experiments:
# [1] = test system: ΔMGMT transduced hematopoietic CD34+ progenitor cells; test: Drug resistance: CFU survival after BG plus TMZ or BCNU, ΔMGMT transduced cells; type: cell-based, human; settings: for IC50 / IC90: Homo sapiens, 10 μM BG 1 hour, then drug 2 hours
# From the text: CD34+ cells were transduced with MFG-ΔMGMT high titer retroviral supernatant obtained as described in Reese et al. 1996. ΔMGMT encodes a mutant form of O-^6 alkylguanine DNA alkyltransferase (ΔAGT) and contains a point mutation which renders the protein resistant to the inhibitor O^6-benzylguanine (BG). CD34+ cells transduced with ΔMGMT are resistant to the drug combinations BG and 1,3bis(2-chloroethly)-1-nitrosourea (BCNU) (Reese et al. 1996) and BG and temozolomide (TMZ) (Reese et al. 1998). The CD34+ cells were transduced as follows: pMFG-wtMGMT or pMFG-ΔMGMT and pSV2neo DNA were cotransfected into the packaging line GP+E86, followed by viral supernatant infection of the amphotropic cell line GP+envAm12 (Markowitz, D. et al. 1988) (Arthur Bank, Columbia University). To increase titer, a supernatant “ping-pong” method was used (Bodine et al. 1990).
# (§1) Drug resistance conferred by ΔMGMT To evaluate drug resistance conferred by ΔMGMT, primary CFU survival at the TMZ or BCNU IC50 and IC90 in transduced or untransduced cells was compared. IC50 (or IC90) is the determination of CFU survival after exposure to TMZ or BCNU in the presence of the AGT inhibitor BG. Following a retroviral transduction period of 72-96 hours, hematopoietic CD34+ progenitor cells were pretreated for 1 hour with 10 μM BG followed by increasing concentrations of TMZ or BCNU for 2 hours. Cells were washed free of drug, plated in methylcellulose and 5 μM BG was added to maintain depletion of endogenous AGT. After culture in methylcellulose, the colonies formed were counted as either CFU-GM, BFU-E and CFU-GEMM (referred to as CFU). Individual CFU were collected from 10 independent experiments, each from a different donor.
# [2] = test system: untransduced hematopoietic CD34+ progenitor cells; test: Drug resistance: CFU survival after BG plus TMZ or BCNU, untransduced cells; type: cell-based; settings: Homo sapiens, 10 μM BG 1 hour, then drug 2 hours
# Description: as §1
smiles,measurement,setting,value
"O=NN(CCCl)C(=O)NCCCl [BCNU, 1,3bis(2-chloroethly)-1-nitrosourea]",increase in the IC90 after exposure to BG,[1]; Dexter,2.5 fold
same,average increase in the IC50 after exposure to BG,[1]; Dexter (n=2),5.6 fold
same,average fold increase in the IC50 after exposure to BG,"[1]; FN (TMZ n=2, BCNU n=1)",2.8 fold
same,increase in the IC90 after exposure to BG,"[1]; FN (TMZ n=2, BCNU n=1)",> 10 fold
same,average increase in the IC50 after exposure to BG,[1]; allo MSC (n=1),2 fold
same,increase in the IC90 after exposure to BG,[1]; allo MSC (n=1),> 6 fold
same,fold increase in ΔMGMT/untransduced CFU IC50,[1]; stroma Allo MSC,5.6 fold
same,fold increase in ΔMGMT/untransduced CFU IC90,[1]; stroma Allo MSC,>6 fold
same,fold increase in ΔMGMT/untransduced CFU IC90,[1]; stroma Dexter,2.5 fold
same,fold increase in ΔMGMT/untransduced CFU IC50,[1]; stroma FN,2.8 fold
"Cn1nnc2c(C(N)=O)ncn2c1=O [TMZ, temozolomide]",average fold increase in the IC50 after exposure to BG,"[1]; FN (TMZ n=2, BCNU n=1)",7.7 fold
same,increase in the IC90 after exposure to BG,"[1]; FN (TMZ n=2, BCNU n=1)",> 8.2 fold
same,IC50,"[1]; read-out: CFU IC50 ΔMGMT, stroma Allo MSC",71 µM
same,IC50,"[1]; read-out: CFU IC50 ΔMGMT, stroma FN",123 µM
same,IC50,"[1]; read-out: CFU IC50 ΔMGMT, stroma auto MSC",64 µM
same,IC90,"[1]; read-out: CFU IC90 ΔMGMT, stroma Allo MSC",> 300 µM
same,IC90,"[1]; read-out: CFU IC90 ΔMGMT, stroma FN",> 300 µM
same,IC90,"[1]; read-out: CFU IC90 ΔMGMT, stroma auto MSC",> 300 µM
same,average fold increase in the IC50 after exposure to BG,[1]; allo MSC and auto MSC (n=4),5.2 fold
same,increase in the IC90 after exposure to BG,[1]; allo MSC and auto MSC (n=4),> 9.8 fold
same,fold increase in ΔMGMT/untransduced CFU IC50,[1]; stroma Allo MSC,2.8 fold and 2.4 fold
same,fold increase in ΔMGMT/untransduced CFU IC90,[1]; stroma Allo MSC,>6 fold and >5.3 fold
same,fold increase in ΔMGMT/untransduced CFU IC90,[1]; stroma FN,>10.3 fold and >6 fold
same,fold increase in ΔMGMT/untransduced CFU IC50,[1]; stroma auto MSC,6.5 fold and 8.9 fold
same,fold increase in ΔMGMT/untransduced CFU IC90,[1]; stroma auto MSC,>10.3 fold and 17.7 fold
same,IC50,[2]; stroma Allo MSC,25.5 µM
same,IC90,[2]; stroma Allo MSC,48 µM
same,IC90,[2]; stroma FN,29 µM
same,IC50,[2]; stroma auto MSC,9.8 µM
same,IC90,[2]; stroma auto MSC,29 µM
